Experiments:
[1] = tested on: phosphorylated c-jun (p-cjun); test: Inhibition of kainic acid induced phospho-cJun upregulation in mice hippocampi; format: in vivo
Method: Female, FVB/N mice (Taconic) were treated by oral gavage (PO) with one 300 mg/kg dose of N-(4-chloro-3-(1H-1,2,4-triazol-5-yl)thiophen-2-yl)-2-(isoquinolin-5-yl)acetamide or vehicle (0.9% saline) at a 5 ml/kg dose volume. Control animals were dosed with vehicle. Thirty minutes later animals were treated interperitoneally with 25 mg/kg of kainic acid or saline at a 10 ml/kg dose volume. Kainic acid was formulated in 0.9% saline. Four hours after kainic acid administration animals were euthanized by carbon dioxide and were transcardially perfused with 0.9% saline. Brains were removed, and separated into left and right hemispheres. The hippocampus was dissected from the right hemisphere, frozen on dry ice and kept at −80° C. until used for quantitation of p-cjun levels.
Preweighed hippocampus tissues were homogenized in cold cell extraction buffer (CEB) containing 1% Triton X-100, 0.1% SDS, 0.5% deoxycholate, 20 mM Na4P2O7, 2 mM Na3VO4, 0.1% SDS and protease inhibitors (PI, 2 mg/mL aprotinin and 1 mg/mL leupeptin) at a ratio of 9:1 CEB to wet tissue weight. Homogenized samples were analyzed using PathScan Phospho-c-Jun (Ser63) Sandwich ELISA Kit II from Cell Signaling Technology. Samples were diluted 1:10 in sample diluent provided in the kit. An 8-point standard curve was prepared by diluting a 10 ng/mL phos-c-Jun standard 1:3 in 10% CEB/PI in sample diluent. Samples and standards were added at 100 μL per well to prewetted ELISA plates which contain a phos-c-jun (ser63)-specific rabbit monoclonal capture antibody and incubated overnight at 4° C. The plate was then allowed to warm to room temperature and washed three times using TBS+0.05% Tween 20 (TTBS). To each well were added 100 μL of a mouse monoclonal c-Jun detection antibody and the plate was incubated at 37° C. for 1 hour. The plate was washed three times in TTBS, then 100 μL per well of an anti-mouse IgG HRP-linked antibody was added. […] The colorimetric reaction was read using a Molecular Devices Spectramax plate reader and sample data was calculated from the standard curve fit to a 4-parameter function.

[2] = target: JNK1 (Homo sapiens (Human), UniProt P45983); test: JNK1 TR-FRET kinase assay (Example 14); format: biochemical; details: procedures of Example 14 (TR-FRET)
Sequence of JNK1 (P45983 other isoform, or with tags, fused parts or gaps isoform P45983-2, species assumed): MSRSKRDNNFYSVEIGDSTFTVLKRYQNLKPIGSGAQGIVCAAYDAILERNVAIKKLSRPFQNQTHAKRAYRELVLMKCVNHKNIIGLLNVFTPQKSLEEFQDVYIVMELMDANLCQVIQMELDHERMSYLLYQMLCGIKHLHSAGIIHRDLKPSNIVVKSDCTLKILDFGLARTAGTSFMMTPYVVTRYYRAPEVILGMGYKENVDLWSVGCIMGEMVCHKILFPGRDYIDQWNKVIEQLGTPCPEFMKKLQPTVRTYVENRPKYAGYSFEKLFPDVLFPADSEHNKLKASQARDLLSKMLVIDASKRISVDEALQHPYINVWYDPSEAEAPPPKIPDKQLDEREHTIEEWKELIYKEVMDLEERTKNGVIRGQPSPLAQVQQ
Outline: (§1)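 Two TR-FRET formats were used for each JNK isoform. In the direct one, preactivated aJNK phosphorylated EPIW-1 at about 1 mM final ATP (RT, 15 min). Both were EDTA-quenched and read by HTRF.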

[3] = target: JNK3 (Homo sapiens (Human), UniProt P53779); test: JNK3 TR-FRET kinase assay (Example 14); format: biochemical; details: procedures of Example 14 (TR-FRET)
Sequence of JNK3 (P53779 whole entry, species assumed): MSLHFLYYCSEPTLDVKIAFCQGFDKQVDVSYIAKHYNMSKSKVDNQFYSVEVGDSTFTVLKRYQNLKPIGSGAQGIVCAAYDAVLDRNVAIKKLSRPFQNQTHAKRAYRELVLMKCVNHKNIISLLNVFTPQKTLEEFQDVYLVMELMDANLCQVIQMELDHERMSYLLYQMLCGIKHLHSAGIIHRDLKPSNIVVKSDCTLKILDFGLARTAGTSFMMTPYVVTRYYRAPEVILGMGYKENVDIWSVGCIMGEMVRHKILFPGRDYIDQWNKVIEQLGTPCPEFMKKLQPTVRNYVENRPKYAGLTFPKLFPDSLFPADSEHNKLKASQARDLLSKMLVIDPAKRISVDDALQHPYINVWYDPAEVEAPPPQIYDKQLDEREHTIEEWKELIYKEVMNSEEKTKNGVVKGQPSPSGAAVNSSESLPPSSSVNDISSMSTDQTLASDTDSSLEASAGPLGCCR
Outline: as §1

[4] = target: JNK2 (Homo sapiens (Human), UniProt P45984); test: JNK2 TR-FRET kinase assay (Example 14); format: biochemical; details: procedures of Example 14 (TR-FRET)
Sequence of JNK2 (P45984 whole entry, species assumed): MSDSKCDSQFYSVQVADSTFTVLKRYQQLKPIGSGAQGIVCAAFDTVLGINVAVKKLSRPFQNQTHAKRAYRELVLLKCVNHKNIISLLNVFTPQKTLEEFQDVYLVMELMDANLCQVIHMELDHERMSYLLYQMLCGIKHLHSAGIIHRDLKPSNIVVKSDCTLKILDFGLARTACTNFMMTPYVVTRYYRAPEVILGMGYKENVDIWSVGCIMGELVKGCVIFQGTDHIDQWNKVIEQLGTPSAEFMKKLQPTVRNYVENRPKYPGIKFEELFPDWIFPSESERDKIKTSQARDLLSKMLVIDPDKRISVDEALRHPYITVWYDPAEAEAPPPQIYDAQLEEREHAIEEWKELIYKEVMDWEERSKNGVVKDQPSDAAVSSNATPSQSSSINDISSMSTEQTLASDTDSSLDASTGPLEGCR
Outline: as §1

SMILES | reduction of p-cjun in the hippocampus ([1]; FVB mice, 300 mg/kg, 4 hours after treatment with kainic acid, statistically significant (unpaired t-test)) [%] | p-cJun Mean ([1]; female FVB/N mice, 300 mg/kg PO 30 min before 25 mg/kg kainic acid i.p., hippocampus 4 h after kainic acid) [ng/mL] | p-cJun % of Vehicle ([1]; female FVB/N mice, 300 mg/kg PO, hippocampus 4 h after kainic acid, relative to kainic acid + vehicle group) [%] | IC50 [2] [nM] | IC50 [3] [nM] | IC50 [4] [nM]
O=C(Cc1cccc2cnccc12)Nc1scc(Cl)c1-c1ncn[nH]1 [N-(4-chloro-3-(1H-1,2,4-triazol-5-yl)thiophen-2-yl)-2-(isoquinolin-5-yl)acetamide] | 51 | 0.927 | 49.2 | < 100 | < 100 | < 100
Cn1cnc(-c2c(C#N)csc2NC(=O)Cc2cccc3ncccc23)n1 [N-(4-cyano-3-(1-methyl-1H-1,2,4-triazol-3-yl)thiophen-2-yl)-2-(quinolin-5-yl)acetamide] |  |  |  | < 100 | < 100 | < 100
N#Cc1csc(NC(=O)Cn2c(=O)ccc3cc(C(F)(F)F)ccc32)c1-n1ccnn1 [N-(4-cyano-3-(1H-1,2,3-triazol-1-yl)thiophen-2-yl)-2-(2-oxo-6-(trifluoromethyl)quinolin-1(2H)-yl)acetamide] |  |  |  | 100 to 10000 | 100 to 10000 | 100 to 10000
N#Cc1csc(NC(=O)CN2C(=O)CCc3ncccc32)c1-c1nc[nH]n1 [N-(4-cyano-3-(1H-1,2,4-triazol-3-yl)thiophen-2-yl)-2-(2-oxo-3,4-dihydro-1,5-naphthyridin-1(2H)-yl)acetamide] |  |  |  | < 100 | < 100 | < 100
N#Cc1csc(NC(=O)CN2C(=O)CCc3ccccc32)c1-c1ncn[nH]1 [N-(4-cyano-3-(1H-1,2,4-triazol-5-yl)thiophen-2-yl)-2-(2-oxo-3,4-dihydroquinolin-1(2H)-yl)acetamide] |  |  |  | < 100 | < 100 | < 100
N#Cc1csc(NC(=O)Cc2cccc3cnccc23)c1-c1ncn[nH]1 [N-(4-cyano-3-(1H-1,2,4-triazol-5-yl)thiophen-2-yl)-2-(isoquinolin-5-yl)acetamide] |  |  |  | < 100 | < 100 | < 100
N#Cc1csc(NC(=O)Cn2c(=O)ccc3cc(C(F)(F)F)ccc32)c1-n1nccn1 [N-(4-cyano-3-(2H-1,2,3-triazol-2-yl)thiophen-2-yl)-2-(2-oxo-6-(trifluoromethyl)quinolin-1(2H)-yl)acetamide] |  |  |  | < 100 | < 100 | < 100
N#Cc1csc(NC(=O)Cc2cccc3ncccc23)c1-c1nnc[nH]1 [N-(4-cyano-3-(4H-1,2,4-triazol-3-yl)thiophen-2-yl)-2-(quinolin-5-yl)acetamide] |  |  |  | < 100 | < 100 | < 100
N#Cc1csc(NC(=O)Cn2c(=O)ccc3cc(C(F)(F)F)ccc32)c1-c1ncco1 [N-(4-cyano-3-(oxazol-2-yl)thiophen-2-yl)-2-(2-oxo-6-(trifluoromethyl)quinolin-1(2H)-yl)acetamide] |  |  |  | < 100 | < 100 | < 100
N#Cc1csc(NC(=O)Cc2cccc3ncccc23)c1-c1cnccn1 [N-(4-cyano-3-(pyrazin-2-yl)thiophen-2-yl)-2-(quinolin-5-yl)acetamide] |  |  |  | < 100 | < 100 | 100 to 10000
N#Cc1csc(NC(=O)CN2C(=O)CCc3ncccc32)c1-c1nccs1 [N-(4-cyano-3-(thiazol-2-yl)thiophen-2-yl)-2-(2-oxo-3,4-dihydro-1,5-naphthyridin-1(2H)-yl)acetamide] |  |  |  | < 100 | < 100 | < 100
N#Cc1csc(NC(=O)Cn2c(=O)ccc3cc(C(F)(F)F)ccc32)c1-c1nccs1 [N-(4-cyano-3-(thiazol-2-yl)thiophen-2-yl)-2-(2-oxo-6-(trifluoromethyl)quinolin-1(2H)-yl)acetamide] |  |  |  | < 100 | < 100 | < 100
N#Cc1csc(NC(=O)Cn2c(=O)ccc3cc(C(F)(F)F)ccc32)c1-c1cscn1 [N-(4-cyano-3-(thiazol-4-yl)thiophen-2-yl)-2-(2-oxo-6-(trifluoromethyl)quinolin-1(2H)-yl)acetamide] |  |  |  | < 100 | < 100 | < 100
N#Cc1csc(NC(=O)Cn2c(=O)ccc3cc(C(F)(F)F)ccc32)c1-c1cncs1 [N-(4-cyano-3-(thiazol-5-yl)thiophen-2-yl)-2-(2-oxo-6-(trifluoromethyl)quinolin-1(2H)-yl)acetamide] |  |  |  | 100 to 10000 | 100 to 10000 | 100 to 10000
Cc1csc(NC(=O)Cc2ccc(OCCCN3CCCCC3)cc2)c1-c1ncn[nH]1 [N-(4-methyl-3-(1H-1,2,4-triazol-5-yl)thiophen-2-yl)-2-(4-(3-(piperidin-1-yl)propoxy)phenyl)acetamide] |  |  |  | 100 to 10000 | 100 to 10000 | 100 to 10000
Cc1csc(NC(=O)Cc2cccc3nccnc23)c1-c1ncn[nH]1 [N-(4-methyl-3-(1H-1,2,4-triazol-5-yl)thiophen-2-yl)-2-(quinoxalin-5-yl)acetamide] |  |  |  | 100 to 10000 | 100 to 10000 | 100 to 10000
Cc1noc(-c2c(C)csc2NC(=O)Cc2cccc3ccccc23)n1 [N-(4-methyl-3-(3-methyl-1,2,4-oxadiazol-5-yl)thiophen-2-yl)-2-(naphthalen-1-yl)acetamide] |  |  |  | 100 to 10000 | 100 to 10000 | 100 to 10000
Cc1n[nH]c(-c2c(C)csc2NC(=O)CN2C(=O)CCc3ccccc32)n1 [N-(4-methyl-3-(3-methyl-1H-1,2,4-triazol-5-yl)thiophen-2-yl)-2-(2-oxo-3,4-dihydroquinolin-1(2H)-yl)acetamide] |  |  |  | < 100 | < 100 | < 100
Cc1n[nH]c(-c2c(C)csc2NC(=O)Cc2ccc(OCCCN3CCCCC3)cc2)n1 [N-(4-methyl-3-(3-methyl-1H-1,2,4-triazol-5-yl)thiophen-2-yl)-2-(4-(3-(piperidin-1-yl)propoxy)phenyl)acetamide] |  |  |  | 100 to 10000 | 100 to 10000 | 100 to 10000
Cc1n[nH]c(-c2c(C)csc2NC(=O)Cc2cccc3ncccc23)n1 [N-(4-methyl-3-(3-methyl-1H-1,2,4-triazol-5-yl)thiophen-2-yl)-2-(quinolin-5-yl)acetamide] |  |  |  | < 100 | < 100 | 100 to 10000
Cc1n[nH]c(-c2c(C)csc2NC(=O)Cc2cccc3nccnc23)n1 [N-(4-methyl-3-(3-methyl-1H-1,2,4-triazol-5-yl)thiophen-2-yl)-2-(quinoxalin-5-yl)acetamide] |  |  |  | 100 to 10000 | 100 to 10000 | 100 to 10000
O=C(Cn1c(=O)ccc2cc(C(F)(F)F)ccc21)Nc1sc(Cl)cc1-c1ncn[nH]1 [N-(5-chloro-3-(1H-1,2,4-triazol-5-yl)thiophen-2-yl)-2-(2-oxo-6-(trifluoromethyl)quinolin-1(2H)-yl)acetamide] |  |  |  | < 100 | 100 to 10000 | 100 to 10000

Reference: patent US9796706B2, “Inhibitors of Jun N-terminal kinase” (IMAGO PHARMACEUTICALS, INC., priority 2009, dated 2017)
